system: not listed separately; assay: Inhibition of anti-CD3, anti-CD28 induced PBL T-cell proliferation; settings: Homo sapiens

Compound	IC50 [nM]
Cc1cccc(Cl)c1NC(=O)c1ccc2nc(NC(=O)NCCC3CCCN3C)sc2c1 (configuration not stated)	960
Cc1cccc(Cl)c1NC(=O)c1ccc2nc(NC(=O)NC(C)(C)C)sc2c1	1100
Cc1cccc(Cl)c1NC(=O)c1ccc2nc(NC(=O)NC3CC(C)(C)NC(C)(C)C3)sc2c1	2800
Cc1cccc(Cl)c1NC(=O)c1ccc2nc(NC(=O)C3CC3C)sc2c1 (configuration not stated)	1580
Cc1cccc(Cl)c1NC(=O)c1ccc2nc(NC(=O)C3CC3CN(C)C)sc2c1 (trans isomer)	3530
Cc1cccc(Cl)c1NC(=O)c1ccc2nc(NC(=O)C3CC3CO)sc2c1 (trans isomer)	1450

target: Tyrosine-protein kinase Lck (Homo sapiens, UniProt P06239); assay: In vitro inhibition of phosphorylation of an exogenous substrate by human p56 Lck tyrosine kinase expressed as a His-tagged protein in insect cells using a baculovirus expression system; settings: not given
Sequence (P06239 whole entry): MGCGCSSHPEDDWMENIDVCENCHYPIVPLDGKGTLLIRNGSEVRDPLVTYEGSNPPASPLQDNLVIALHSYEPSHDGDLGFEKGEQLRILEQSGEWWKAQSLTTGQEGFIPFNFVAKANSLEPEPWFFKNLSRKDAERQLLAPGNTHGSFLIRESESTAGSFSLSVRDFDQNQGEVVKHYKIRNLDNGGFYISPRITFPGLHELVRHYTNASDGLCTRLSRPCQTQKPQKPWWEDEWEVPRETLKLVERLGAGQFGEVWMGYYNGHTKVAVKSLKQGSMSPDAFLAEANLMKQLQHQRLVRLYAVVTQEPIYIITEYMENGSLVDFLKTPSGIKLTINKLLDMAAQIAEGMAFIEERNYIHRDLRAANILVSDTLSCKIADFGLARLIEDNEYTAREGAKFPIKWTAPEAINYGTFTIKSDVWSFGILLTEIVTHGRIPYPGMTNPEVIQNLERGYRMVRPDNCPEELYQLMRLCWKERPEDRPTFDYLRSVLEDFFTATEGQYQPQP

Compound	IC50 [nM]
Cc1cc(C)c(NC(=O)c2ccc3nc(NC(=O)OC(C)(C)C)sc3c2)c(C)c1Br	> 12500
Cc1cccc(Cl)c1NC(=O)c1ccc2nc(NC(=O)NC3CC3)sc2c1	90
Cc1cccc(Cl)c1NC(=O)c1ccc2nc(NC(=O)NCc3ccco3)sc2c1	39
Cc1cc(C)c(NC(=O)c2ccc3nc(NC(=O)C(C)C)sc3c2)c(C)c1	700
Cc1cc(C)c(NC(=O)c2ccc3nc(N)oc3c2)c(C)c1	23000
Cc1cc(C)c(NC(=O)c2cccc3sc(NC(=O)OC(C)(C)C)nc23)c(C)c1	> 12500
Cc1cccc(C)c1NC(=O)c1ccc2nc(NC(=O)C(C)C)sc2c1	1800
CCC(NC(=O)Nc1nc2ccc(C(=O)Nc3c(C)cccc3Cl)cc2s1)c1ccccc1 (configuration not stated)	19
Cc1cccc(Cl)c1NC(=O)c1ccc2nc(NC(=O)Nc3ncccn3)sc2c1	> 3130
Cc1ccccc1CC(=O)Nc1nc2ccc(C(=O)Nc3c(C)cccc3Cl)cc2s1	565
CC(=O)c1cccc(O)c1NC(=O)c1ccc2nc(NC(=O)OC(C)(C)C)sc2c1	> 12500
Cc1cc(C)c(NC(=O)c2ccc3nc(NC(=O)NCc4ccccc4)sc3c2)c(C)c1	1730
Cc1cccc(Cl)c1NC(=O)c1ccc2nc(NC(=O)Nc3ccccn3)sc2c1	2010
Cc1cc(C)c(NC(=O)c2sc(N)nc2C)c(C)c1	3200
Cc1cc(C)c(NC(=O)c2cc(C)c3nc(NC(=O)OC(C)(C)C)sc3c2)c(C)c1	5600
Cc1cccc(Cl)c1NC(=O)c1ccc2nc(NC(=O)NCCC3CCCN3C)sc2c1 (configuration not stated)	7
Cc1cc(C)c(NC(=O)c2ccc3[nH]c(NC(=O)OC(C)(C)C)nc3c2)c(C)c1	3230
Cc1cc(C)c(NC(=O)c2ccc3nc(NC(=O)OC(C)(C)C)oc3c2)c(C)c1	7250
Cc1cc(C)c(NC(=O)c2ccc3nc(NC(=O)c4ccccc4)sc3c2)c(C)c1	> 12500
Cc1cc(C)c(NC(=O)c2sc(NC(=O)OC(C)(C)C)nc2C)c(C)c1	3000

Compound	IC50 [nM]
Cc1cc(C)c(NC(=O)c2ccc3nc(N)sc3c2)c(C)c1	15000
Cc1cccc(Cl)c1NC(=O)c1ccc2nc(NC(=O)NC3CCCC3)sc2c1	45
Cc1cccc(Br)c1NC(=O)c1ccc2nc(NC(=O)OC(C)(C)C)sc2c1	4270
Cc1cccc(Cl)c1NC(=O)c1ccc2nc(NC(=O)C3CCC3)sc2c1	666
Cc1cc(Br)ccc1NC(=O)c1ccc2nc(NC(=O)OC(C)(C)C)sc2c1	> 12500
COc1cccc(OC)c1NC(=O)c1ccc2nc(NC(=O)OC(C)(C)C)sc2c1	> 12500
Cc1cc(C)c(NC(=O)c2ccc3sc(NC(=O)OC(C)(C)C)nc3c2)c(C)c1	> 12500
COC(=O)c1cc(C)c(NC(=O)c2ccc3nc(NC(=O)OC(C)(C)C)sc3c2)c(C)c1	3120
Cc1cccc(Cl)c1NC(=O)c1ccc2nc(NC(=O)Nc3ccc(F)cc3)sc2c1	123
Cc1cccc(Cl)c1NC(=O)c1ccc2nc(NC(=O)C3CCCO3)sc2c1 (configuration not stated)	272
Cc1cc(C)c(NC(=O)c2ccc3nc(NC(=O)OC(C)(C)C)sc3c2)c(Br)c1C	> 12500
Cc1cc(C)c(NC(=O)c2ccc3[nH]c(N)nc3c2)c(C)c1	> 12500
Cc1cc(C)c(NC(=O)c2ccc3nc(N)sc3n2)c(C)c1	> 12500
Cc1ccc(C(C)C)c(C)c1NC(=O)c1ccc2nc(NC(=O)OC(C)(C)C)sc2c1	> 12500
Cc1cc(C)c(NC(=O)c2cccc3nc(NC(=O)OC(C)(C)C)sc23)c(C)c1	> 12500
Cc1cc(C)c(NC(=O)c2ccc3nc(NC(=O)OC(C)(C)C)sc3n2)c(C)c1	> 12500
Cc1cccc(CCO)c1NC(=O)c1ccc2nc(NC(=O)OC(C)(C)C)sc2c1	> 12500
Cc1cc(C)c(NC(=O)c2ccc3nc(NC(=O)OC(C)(C)C)sc3c2Cl)c(C)c1	4400
Cc1cc(C)c(NC(=O)c2cc3sc(NC(=O)OC(C)(C)C)nc3cc2Cl)c(C)c1	> 12500
COc1cc(C(=O)Nc2c(C)cc(C)cc2C)nc2sc(NC(=O)OC(C)(C)C)nc12	> 12500

More lines, now with the values ahead:

IC50 [nM]	Compound
330	CCCCNC(=O)Nc1nc2ccc(C(=O)Nc3c(C)cc(C)cc3C)cc2s1
310	Cc1cc(CO)cc(C)c1NC(=O)c1ccc2nc(NC(=O)OC(C)(C)C)sc2c1
300	Cc1cc(C)c(NC(=O)c2ccc3nc(NC(=O)NC4CC4)sc3c2)c(C)c1
290	Cc1cc(C)c(NC(=O)c2ccc3nc(NC(=O)OC(C)(C)C)sc3c2)c(C)c1
200	Cc1cc(C)c(NC(=O)c2ccc3nc(NC(=O)OC(C)(C)C)sc3c2)c(Br)c1
110	Cc1cc(Br)cc(C)c1NC(=O)c1ccc2nc(NC(=O)OC(C)(C)C)sc2c1
100	Cc1cccc(C)c1NC(=O)c1ccc2nc(NC(=O)NC(C)(C)C)sc2c1
90	Cc1cccc(C)c1NC(=O)c1ccc2nc(NC(=O)OC(C)(C)C)sc2c1
90	Cc1cccc(C)c1NC(=O)c1ccc2nc(NC(=O)NC3CC3)sc2c1
87	Cc1cccc(Cl)c1NC(=O)c1ccc2nc(NC(=O)NCc3ccc(F)cc3)sc2c1
80	CCC(C)(C)NC(=O)Nc1nc2ccc(C(=O)Nc3c(C)cccc3C)cc2s1
70	Cc1cc(C)c(NC(=O)c2ccc3nc(NC(=O)NC(C)(C)C)sc3c2)c(C)c1
70	Cc1cccc(Cl)c1NC(=O)c1ccc2nc(NC(=O)OC(C)(C)C)sc2c1
55	CCC(C)(C)NC(=O)Nc1nc2ccc(C(=O)Nc3c(C)cccc3Cl)cc2s1
30	Cc1cccc(Cl)c1NC(=O)c1ccc2nc(NC(=O)NCCN(C)C)sc2c1
20	Cc1cc(C)c(NC(=O)c2ccc3nc(NC(=O)C4CC4)sc3c2)c(C)c1
15	Cc1cccc(C)c1NC(=O)c1ccc2nc(NC(=O)C3CC3)sc2c1
11	Cc1cccc(C)c1NC(=O)c1ccc2nc(NC(=O)C3CC3C)sc2c1 (configuration not stated)
9	Cc1cccc(Cl)c1NC(=O)c1ccc2nc(NC(=O)C3CC3)sc2c1
4	Cc1cccc(Cl)c1NC(=O)c1ccc2nc(NC(=O)NC(C)(C)C)sc2c1
4	Cc1cccc(Cl)c1NC(=O)c1ccc2nc(NC(=O)NC3CC(C)(C)NC(C)(C)C3)sc2c1

Source: ChEMBL document CHEMBL1136079, “Molecular design, synthesis, and structure-Activity relationships leading to the potent and selective p56(lck) inhibitor BMS-243117” (Bioorg Med Chem Lett, 2003)
